From PubChem BioAssay (NCI) come the findings set out here.

One may read the GI50 as the concentration at which growth is held to half of that of the control. As a reminder, the TGI is the concentration giving total growth inhibition. The low end stands for greater sensitivity of the cells, the high end for lower sensitivity of the cells.

SMILES strings stand for the structures.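 Five concentrations, 48 hours, 96-well plates. At the GI50, growth is halved. Definition used: TGI = concentration required for complete inhibition of growth.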 Where only a bound is given, the exact number is not on record here.

Some test systems named below: RXF 393 renal; NCI-H522 lung; U251 CNS; ACHN renal; NCI-H23 lung; M14 melanoma; SW-620 colon; A549 NSCLC; K-562 leukemia; SF-539 CNS.
Common to all, as to assay: DTP human tumour cell line panel, 48 h

`COc1cc(O)c([C@@H]2C[C@H](CCc3ccc(O)cc3)O[C@H](c3ccc(O)cc3)C2)c(O)c1C(=O)/C=C/c1ccc(O)cc1`: the GI50 with RXF 393 renal is 2.48 µM; with NCI-H522 lung, 2.73 µM; in the experiment on U251 CNS, 2.81 µM; in the experiment with ACHN renal it was 2.43 µM; in the experiment on NCI-H23 lung it was 2.57 µM; in the experiment with M14 melanoma, 3.24 µM. Further, the GI50 in the experiment on SW-620 colon was 2.24 µM; in the experiment on A549 NSCLC, 3.33 µM; with K-562 leukemia, 2.32 µM; in the experiment with SF-539 CNS it was 2.23 µM. Also, the TGI with RXF 393 renal turned out to be 5.64 µM; in the experiment with NCI-H522 lung it was 8.52 µM; in the experiment with U251 CNS, 9.22 µM; with ACHN renal, 6.01 µM; in the experiment on NCI-H23 lung, 5.71 µM; in the experiment on M14 melanoma it was 9.3 µM. In addition, the TGI in the experiment on SW-620 colon was 6.12 µM; in the experiment on A549 NSCLC, 25.1 µM; with K-562 leukemia it was 6.24 µM; in the experiment with SF-539 CNS, 4.98 µM.
For the compound `CCOc1cc2ncc(C#N)c(Nc3ccc(OCc4cccc(F)c4)c(Cl)c3)c2cc1NC(=O)CC1CCSS1` (stereo not drawn), the GI50 in the experiment with RXF 393 renal was 2.35 µM; in the experiment with NCI-H522 lung, above 6.9 µM; with U251 CNS, above 6.88 µM; in the experiment on ACHN renal, 3.1 µM; with NCI-H23 lung, 2.08 µM; in the experiment on M14 melanoma it was 0.45 µM. In addition, the GI50 is above 25 µM with SW-620 colon, 0.542 µM with A549 NSCLC, 0.902 µM in the experiment with K-562 leukemia and 2.28 µM in the experiment with SF-539 CNS. For the same compound, the TGI with RXF 393 renal was 15.8 µM; in the experiment on NCI-H522 lung, above 25 µM; with U251 CNS, above 25 µM; in the experiment on ACHN renal it was above 25 µM; in the experiment with NCI-H23 lung, above 25 µM; in the experiment with M14 melanoma, 0.915 µM. Besides, the TGI in the experiment on SW-620 colon is above 25 µM; with A549 NSCLC it was 1.16 µM; in the experiment with K-562 leukemia it was above 25 µM; with SF-539 CNS it was above 25 µM.
For the compound `COc1cc(/C(C#N)=C/c2ccc3c(c2OC)OCO3)cc2c1OCO2`, the GI50 is 0.174 µM in the experiment on RXF 393 renal; 0.0324 µM in the experiment on NCI-H522 lung; 0.11 µM in the experiment with U251 CNS; 2.43 µM in the experiment on ACHN renal; 0.162 µM in the experiment on NCI-H23 lung; 0.0477 µM in the experiment with M14 melanoma. The GI50 in the experiment with SW-620 colon is 0.0412 µM; in the experiment with A549 NSCLC it was 0.0879 µM; in the experiment on K-562 leukemia, 0.0358 µM; in the experiment with SF-539 CNS it was 0.0964 µM. Also, the TGI in the experiment with RXF 393 renal is 0.753 µM; in the experiment with NCI-H522 lung, 0.283 µM; in the experiment with U251 CNS it was 14 µM; in the experiment with ACHN renal, above 58.9 µM; in the experiment on NCI-H23 lung, 11.6 µM; in the experiment with M14 melanoma, 7.81 µM. Moreover, the TGI is above 100 µM with SW-620 colon, above 100 µM in the experiment with A549 NSCLC, above 32.9 µM with K-562 leukemia and 2.29 µM with SF-539 CNS.
As to `COc1cc(CCc2ccc(OCCN(C)C)cc2)cc(OC)c1OC`, the TGI with RXF 393 renal, with NCI-H522 lung, with U251 CNS, in the experiment on ACHN renal, in the experiment with M14 melanoma and in the experiment with SW-620 colon was above 100 µM throughout. Moreover, the TGI in the experiment on A549 NSCLC, in the experiment on K-562 leukemia and with SF-539 CNS was above 100 µM each time.
In the case of `O=C(c1ccccc1)C(C(=O)c1ccccc1)C1(O)C(=O)c2ccccc2C1=O`, the TGI in the experiment on RXF 393 renal is 0.889 µM; in the experiment on NCI-H522 lung, 42.2 µM; in the experiment with U251 CNS it was above 100 µM; with ACHN renal, above 100 µM; in the experiment with NCI-H23 lung, 84.6 µM; in the experiment on M14 melanoma, above 100 µM. Also, the concentration for total growth inhibition (TGI) in the experiment with SW-620 colon was above 100 µM; with A549 NSCLC, above 100 µM; in the experiment on K-562 leukemia it was 60.6 µM; in the experiment on SF-539 CNS, above 100 µM.
As for `O=C1NCc2ccc3c(-c4cccc(Cl)c4)c[nH]c3c21`, the 50% growth inhibitory concentration (GI50) in the experiment on RXF 393 renal is 0.296 µM; with NCI-H522 lung it was 0.225 µM; in the experiment with U251 CNS it was 0.247 µM; with ACHN renal, 0.333 µM; with NCI-H23 lung it was 0.484 µM; with M14 melanoma, 0.147 µM. The 50% growth inhibitory concentration (GI50) in the experiment on SW-620 colon was 0.195 µM; in the experiment with A549 NSCLC, 0.438 µM; in the experiment on K-562 leukemia, 0.134 µM; in the experiment with SF-539 CNS, 0.166 µM. Moreover, the total growth inhibition concentration (TGI) in the experiment on RXF 393 renal was above 15.4 µM; with NCI-H522 lung, above 39 µM; with U251 CNS, above 50 µM; in the experiment with ACHN renal it was above 50 µM; in the experiment with NCI-H23 lung, above 50 µM; with M14 melanoma, above 50 µM. For the same compound, the TGI in the experiment with SW-620 colon was above 50 µM; in the experiment with A549 NSCLC, above 50 µM; with K-562 leukemia, above 50 µM; with SF-539 CNS, 3.29 µM.
Regarding `CS(=O)(=O)CCNCc1nc(-c2ccc3ncnc(Nc4ccc(F)c(Cl)c4)c3c2)cs1`, the GI50 in the experiment with RXF 393 renal is 9.75 µM; with NCI-H522 lung, 3.34 µM; with U251 CNS it was above 25 µM; with ACHN renal, 0.785 µM; in the experiment with NCI-H23 lung, above 25 µM; in the experiment on M14 melanoma, 21.5 µM. In addition, the GI50 in the experiment with SW-620 colon was above 25 µM; in the experiment with A549 NSCLC, 15.8 µM; with K-562 leukemia, above 12.5 µM; in the experiment with SF-539 CNS, above 25 µM. Also, the TGI in the experiment with RXF 393 renal, with NCI-H522 lung, with U251 CNS, with ACHN renal, with NCI-H23 lung and in the experiment with M14 melanoma was above 25 µM throughout. The TGI in the experiment with SW-620 colon was above 25 µM; with A549 NSCLC, above 25 µM; in the experiment on K-562 leukemia it was above 19.7 µM; in the experiment with SF-539 CNS it was above 25 µM.
As for `CNC(=O)c1cc(OC2CCC(NC(=O)Nc3ccc(Cl)c(C(F)(F)F)c3)CC2)ccn1` (stereo not drawn), the GI50 in the experiment on RXF 393 renal was 10.5 µM; in the experiment with NCI-H522 lung, 4.16 µM; in the experiment with U251 CNS, 6.81 µM; with ACHN renal it was 7.76 µM; in the experiment with NCI-H23 lung, 4.47 µM; in the experiment with M14 melanoma it was 5.47 µM. Also, the GI50 in the experiment on SW-620 colon is 11.5 µM; in the experiment on A549 NSCLC, 4.53 µM; in the experiment on K-562 leukemia, 3.66 µM; in the experiment on SF-539 CNS it was 12 µM. Moreover, the TGI with RXF 393 renal is 24.5 µM; in the experiment on NCI-H522 lung, 16.9 µM; with U251 CNS, 23.4 µM; in the experiment with ACHN renal, 31.5 µM; with NCI-H23 lung it was 20.4 µM; with M14 melanoma it was 20.6 µM. Further, the TGI was 31.2 µM with SW-620 colon, 26.6 µM with A549 NSCLC, 17.3 µM in the experiment on K-562 leukemia and 29.6 µM in the experiment on SF-539 CNS.
As for `Nc1ccn(CCOC(=O)c2ccccc2)c(=O)n1`, the TGI in the experiment with RXF 393 renal, with NCI-H522 lung, with U251 CNS, in the experiment with ACHN renal, in the experiment on M14 melanoma and with SW-620 colon was above 100 µM throughout. For the same compound, the TGI with A549 NSCLC, in the experiment on K-562 leukemia and in the experiment with SF-539 CNS was above 100 µM in each case.
